Results reported in patent US20240316017A1, “NOVEL PYRIDINE DERIVATIVE COMPOUND AS RON INHIBITOR” (LG CHEM, LTD., priority 2021, published 2024).

Key:
cMET = cMET (Homo sapiens, UniProt P08581); test: Evaluation of inhibitory activity against MET (TR-FRET kinase assay); format: biochemical; conditions: cMET protein, TK peptide substrate
How it was run: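 Human cMET was used at 2 nM before mixing, in 50 mM HEPES pH 7.4, 20 mM MgCl2, 0.5 mM MnCl2, 0.05% BSA, 1 mM DTT. Compound (1 mM DMSO stock, 10-point 3-fold series) was preincubated with enzyme 20-30 min at RT. A 2× cocktail (5 uM TK peptide, 10 mM ATP) was added for 60 min, then EDTA stop, Eu-anti-phosphotyrosine TR-FRET (665/620 nm) and IC50.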

RON = RON (Homo sapiens, UniProt Q04912); test: Evaluation of inhibitory activity against RON (TR-FRET kinase assay); format: biochemical; conditions: RON protein, ULight-labeled Poly GT substrate
Sequence of RON (Q04912 25-1400, species assumed): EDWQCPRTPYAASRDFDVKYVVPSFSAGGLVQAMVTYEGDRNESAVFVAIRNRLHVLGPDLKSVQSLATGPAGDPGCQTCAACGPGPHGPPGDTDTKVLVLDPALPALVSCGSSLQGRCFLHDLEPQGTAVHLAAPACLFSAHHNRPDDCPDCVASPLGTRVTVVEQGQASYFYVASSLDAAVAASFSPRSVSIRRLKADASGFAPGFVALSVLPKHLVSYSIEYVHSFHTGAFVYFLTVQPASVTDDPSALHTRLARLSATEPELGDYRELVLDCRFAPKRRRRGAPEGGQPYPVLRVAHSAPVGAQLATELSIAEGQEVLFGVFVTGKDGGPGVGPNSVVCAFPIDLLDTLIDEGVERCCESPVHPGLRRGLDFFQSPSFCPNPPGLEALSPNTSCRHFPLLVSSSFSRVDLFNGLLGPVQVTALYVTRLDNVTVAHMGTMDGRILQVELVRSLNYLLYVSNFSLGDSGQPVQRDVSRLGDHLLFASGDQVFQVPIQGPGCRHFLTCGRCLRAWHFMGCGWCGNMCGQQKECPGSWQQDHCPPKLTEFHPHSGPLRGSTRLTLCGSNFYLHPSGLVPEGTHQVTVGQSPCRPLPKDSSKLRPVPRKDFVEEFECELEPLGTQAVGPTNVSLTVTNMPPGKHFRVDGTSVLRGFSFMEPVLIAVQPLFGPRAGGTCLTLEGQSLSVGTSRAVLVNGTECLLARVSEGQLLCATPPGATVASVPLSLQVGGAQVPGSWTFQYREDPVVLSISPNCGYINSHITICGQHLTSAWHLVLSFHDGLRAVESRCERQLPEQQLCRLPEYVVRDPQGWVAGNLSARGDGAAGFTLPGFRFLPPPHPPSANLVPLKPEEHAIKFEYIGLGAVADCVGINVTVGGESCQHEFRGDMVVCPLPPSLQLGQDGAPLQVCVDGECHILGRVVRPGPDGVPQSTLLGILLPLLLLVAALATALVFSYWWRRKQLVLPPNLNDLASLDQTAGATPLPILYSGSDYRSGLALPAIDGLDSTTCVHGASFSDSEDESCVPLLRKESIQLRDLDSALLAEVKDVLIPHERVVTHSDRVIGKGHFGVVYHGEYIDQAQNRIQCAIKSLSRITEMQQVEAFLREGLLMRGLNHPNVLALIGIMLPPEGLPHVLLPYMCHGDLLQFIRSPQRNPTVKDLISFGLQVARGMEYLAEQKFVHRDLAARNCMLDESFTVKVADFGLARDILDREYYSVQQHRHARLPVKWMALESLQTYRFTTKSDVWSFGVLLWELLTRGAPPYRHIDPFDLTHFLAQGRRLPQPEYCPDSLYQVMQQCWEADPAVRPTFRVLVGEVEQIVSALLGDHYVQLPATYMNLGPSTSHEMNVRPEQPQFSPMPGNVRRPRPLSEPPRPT
How it was run: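 TR-FRET kinase assay with 0.4 nM RON (pre-dilution) in pH 7.4 HEPES buffer; compounds in 10-point 3-fold series, preincubated with enzyme 20–30 min at RT, then 1× of 2× cocktail (40 uM ULight-poly GT, 100 nM ATP) for 60 min. EDTA-stopped; Eu-anti-phosphotyrosine read at 620/665 nm; IC50 from curve fit.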

Sequence of cMET (P08581 25-1390): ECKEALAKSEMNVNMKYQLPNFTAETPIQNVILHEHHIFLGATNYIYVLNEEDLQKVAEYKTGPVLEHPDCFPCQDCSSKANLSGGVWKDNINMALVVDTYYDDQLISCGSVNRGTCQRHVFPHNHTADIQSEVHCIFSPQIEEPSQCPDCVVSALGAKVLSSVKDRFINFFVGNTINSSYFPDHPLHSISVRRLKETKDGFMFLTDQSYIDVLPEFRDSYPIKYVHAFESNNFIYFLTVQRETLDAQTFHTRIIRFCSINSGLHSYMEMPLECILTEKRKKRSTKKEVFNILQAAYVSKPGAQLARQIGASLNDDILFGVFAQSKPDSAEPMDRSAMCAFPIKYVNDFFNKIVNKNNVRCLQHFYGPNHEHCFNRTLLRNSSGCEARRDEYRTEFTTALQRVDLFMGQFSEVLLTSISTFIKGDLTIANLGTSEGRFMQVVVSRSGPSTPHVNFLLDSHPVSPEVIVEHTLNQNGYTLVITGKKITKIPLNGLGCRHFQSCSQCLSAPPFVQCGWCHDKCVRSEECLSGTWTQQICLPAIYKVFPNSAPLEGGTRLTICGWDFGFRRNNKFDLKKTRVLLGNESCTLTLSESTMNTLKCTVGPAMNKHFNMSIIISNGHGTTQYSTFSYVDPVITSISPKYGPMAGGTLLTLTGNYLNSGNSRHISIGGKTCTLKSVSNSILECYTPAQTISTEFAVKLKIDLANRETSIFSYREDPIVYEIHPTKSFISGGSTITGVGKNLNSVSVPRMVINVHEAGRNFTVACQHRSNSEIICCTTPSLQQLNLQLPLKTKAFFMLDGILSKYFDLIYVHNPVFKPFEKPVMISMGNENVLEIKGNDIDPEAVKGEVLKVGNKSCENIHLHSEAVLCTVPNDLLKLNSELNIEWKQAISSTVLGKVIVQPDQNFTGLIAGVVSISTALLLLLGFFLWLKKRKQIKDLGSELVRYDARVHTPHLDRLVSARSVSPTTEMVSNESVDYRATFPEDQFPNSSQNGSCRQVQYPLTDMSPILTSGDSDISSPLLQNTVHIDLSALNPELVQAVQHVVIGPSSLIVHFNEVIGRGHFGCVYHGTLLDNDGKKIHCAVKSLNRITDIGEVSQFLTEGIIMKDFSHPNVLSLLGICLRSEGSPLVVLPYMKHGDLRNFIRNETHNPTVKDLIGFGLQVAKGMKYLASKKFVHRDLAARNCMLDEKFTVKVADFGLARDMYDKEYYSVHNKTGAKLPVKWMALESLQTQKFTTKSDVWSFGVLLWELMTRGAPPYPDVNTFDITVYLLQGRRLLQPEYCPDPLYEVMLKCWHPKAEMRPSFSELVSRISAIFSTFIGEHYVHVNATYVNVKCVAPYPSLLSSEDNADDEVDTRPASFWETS

IC50 (cMET): > 5000 nM
IC50 (RON): 50 to 500 nM
SMILES: COc1ccccc1-n1ncc(C(=O)Nc2ccc(Oc3ccnc(N)c3Cl)c(F)c2)c1C(F)(F)F [Example 16, N-(4-((2-amino-3-chloropyridin-4-yl)oxy)-3-fluorophenyl)-1-(2-methoxyphenyl)-5-(trifluoromethyl)-1H-pyrazole-4-carboxamide]
